The values below come from US8470844B2, “Imidazoacridinone derivative compounds and methods for their use” (Technion Research & Development Foundation Limited, priority 2008, dated 2013).

In data set [1] the target is T1, FLT3 receptor tyrosine kinase (Homo sapiens, UniProt P36888).
T1 sequence (P36888 27-993): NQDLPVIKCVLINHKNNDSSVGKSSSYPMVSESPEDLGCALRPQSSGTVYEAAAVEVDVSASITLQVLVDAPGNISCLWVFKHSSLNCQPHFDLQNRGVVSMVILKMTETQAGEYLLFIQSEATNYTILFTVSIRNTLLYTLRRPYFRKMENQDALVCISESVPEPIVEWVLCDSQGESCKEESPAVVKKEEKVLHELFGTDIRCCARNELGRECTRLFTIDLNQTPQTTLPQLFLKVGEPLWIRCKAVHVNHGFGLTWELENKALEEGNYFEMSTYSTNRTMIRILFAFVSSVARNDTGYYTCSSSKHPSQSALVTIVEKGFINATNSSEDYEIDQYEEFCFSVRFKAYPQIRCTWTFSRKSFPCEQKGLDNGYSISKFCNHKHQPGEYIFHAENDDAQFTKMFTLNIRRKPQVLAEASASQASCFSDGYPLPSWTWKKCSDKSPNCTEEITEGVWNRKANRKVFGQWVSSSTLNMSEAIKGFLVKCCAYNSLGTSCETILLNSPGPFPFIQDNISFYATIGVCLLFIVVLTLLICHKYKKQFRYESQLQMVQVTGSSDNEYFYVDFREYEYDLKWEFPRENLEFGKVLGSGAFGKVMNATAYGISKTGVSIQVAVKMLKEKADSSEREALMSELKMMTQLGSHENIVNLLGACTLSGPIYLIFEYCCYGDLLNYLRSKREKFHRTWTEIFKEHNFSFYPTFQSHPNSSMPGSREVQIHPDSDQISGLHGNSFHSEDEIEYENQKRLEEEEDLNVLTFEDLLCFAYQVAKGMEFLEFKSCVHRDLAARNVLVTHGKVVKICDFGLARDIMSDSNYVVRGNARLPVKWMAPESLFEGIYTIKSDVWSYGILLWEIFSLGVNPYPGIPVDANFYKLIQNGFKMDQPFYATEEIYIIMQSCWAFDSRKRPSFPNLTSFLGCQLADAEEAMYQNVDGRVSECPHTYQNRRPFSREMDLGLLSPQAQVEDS
Conditions: preclinical, from cited literature; cited from earlier work.

Data set [2] deals with T2, ABCG2 (A549/K1.5 cells) (Homo sapiens, UniProt Q9UNQ0).
T2 construct: Drug resistant A549/K1.5 cells with ABCG2 overexpression were maintained under a continuous drug selection with 1.5 μM C-1305; endogenous in cells; host or cells: A549/K1.5 (C-1305-selected subline of human non-small cell lung cancer A549)
T2 sequence (Q9UNQ0 1-655): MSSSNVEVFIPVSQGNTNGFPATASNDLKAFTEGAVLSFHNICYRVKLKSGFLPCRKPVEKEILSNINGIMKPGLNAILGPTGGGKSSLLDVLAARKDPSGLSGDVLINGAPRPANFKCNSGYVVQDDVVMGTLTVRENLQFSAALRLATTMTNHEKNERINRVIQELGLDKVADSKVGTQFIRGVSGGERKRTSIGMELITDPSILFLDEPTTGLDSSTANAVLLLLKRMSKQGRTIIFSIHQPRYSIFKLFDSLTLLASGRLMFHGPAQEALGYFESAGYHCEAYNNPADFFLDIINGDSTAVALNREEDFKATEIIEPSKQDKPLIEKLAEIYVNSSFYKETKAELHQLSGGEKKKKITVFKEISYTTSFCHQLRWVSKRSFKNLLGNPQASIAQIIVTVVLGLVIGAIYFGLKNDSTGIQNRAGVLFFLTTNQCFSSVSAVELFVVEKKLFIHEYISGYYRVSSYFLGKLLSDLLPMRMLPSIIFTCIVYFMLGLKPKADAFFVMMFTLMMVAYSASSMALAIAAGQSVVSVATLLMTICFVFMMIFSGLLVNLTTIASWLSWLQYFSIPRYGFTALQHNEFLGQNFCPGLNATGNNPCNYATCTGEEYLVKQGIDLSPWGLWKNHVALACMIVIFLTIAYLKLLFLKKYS
Nature of the data set: Flow cytometric IA accumulation in A549/K1.5 cells with or without fumitremorgin C. The class given is cell-based. How it is done:
In this assay, one ml aliquots of A549/K1.5 or CCRF-CEM cell suspensions (1×10^6 cells/ml) in growth medium containing 20 mM Hepes at pH 7.3 were distributed into 1.5 ml polypropylene Eppendorf test tubes. […] Rabindran, S. […] Alternatively, in time-course experiments, IA derivatives at a constant concentration of 10 μM were added to a CCRF-CEM cell suspension incubated at 37° C., and 1 ml aliquots were removed at variable time points up to 1 hour. Following incubation, test tubes were transferred to ice and centrifuged at 4° C. Cells were then washed twice and re-suspended in ice-cold PBS containing 1% fetal calf serum and kept in the dark at 4° C. until analysis. […] Quantitative evaluation of ABCG2 interaction with various IA derivatives: The extent of ABCG2-mediated resistance was expressed using the Resistance Fold (RF) parameter representing the ratio between the IC50 values of the resistant cells and parental cells.
A general note: Flow cytometry measures light scatter and fluorescence of single cells or particles in a stream.

On to `CCN(CC)CCNc1ccc2ncn3c4ccc(O)cc4c(=O)c1c23` [C-1311], for which, in data set [1], the “FLT3 receptor tyrosine kinase inhibition (in words)” value is “potent and selective FLT3 receptor tyrosine kinase inhibitor”. For the same molecule, the “ABCG2-mediated extrusion / interaction with ABCG2 (in words)” value in data set [2] is “extruded by ABCG2-overexpressing lung cancer A549/K1.5 cells”.
